Experimental data reported in patent US20120270935A1, “FORMULATIONS” (priority 2009, published 2012).
≈ marks a conversion by molar mass, not a printed value. Read-outs that look alike come from different tables or passages of the source.

How the values were obtained:
S. mutans ATCC 25175 = assay: MBC assay; type: cell-based, Streptococcus mutans; details: Wilkins-Chalgren broth pH 7 (±0.2)
Description: (§1) (a) staphylococci. The Staphylococcus aureus strain used was ATCC 29213. S. aureus and other staphylococci are common causes of a wide range of skin, skin structure and wound infections; S. aureus is also known to exacerbate eczema. The ATCC 29213 strain is known to be susceptible to beta-lactam antibiotics such as methicillin. The Staphylococcus epidermidis strain used was NCTC 11047. Staph. epidermidis forms part of the resident flora of skin and is an opportunistic pathogen which can cause biofilms to grow for instance on plastic surgical implants such as catheters. Unless otherwise stated, the staphylococci were cultured and maintained on Mueller-Hinton Medium (agar and broth) at pH 7.2; cultures were incubated aerobically at 37° C. for 19-20 hours, at pH 7 (±0.2). (b) C. striatum NCTC 764. Corynebacterium striatum is closely related to organisms (aerobic diphtheroids of the genus Corynebacterium) that cause body odour. It was cultured and maintained on Mueller-Hinton medium (agar and broth). All cultures were incubated aerobically at 37° C. for 72 hours, at pH 7 (±0.2). (c) streptococci. The strains tested were S. mutans ATCC 25175 and S. pyogenes ATCC 12344. S. mutans is a Gram-positive, microaerophilic bacterium which plays a significant role in dental caries and in infective endocarditis. Streptococcus pyogenes is associated with skin, soft tissue, burn and wound infections. […]

S. aureus ATCC 29213 = assay: MBC assay; type: cell-based, Staphylococcus aureus; details: Mueller-Hinton broth pH 7.0
Description: as §1, with “infections. S. mutans was cultured and maintained on Wilkins-Chalgren Anaerobe medium+1 g/L glucose (agar and broth); it was incubated in air at 37° C. for 48 hours, at pH 7 (±0.2) with 5% carbon dioxide. S. pyogenes was cultured and maintained on Mueller-Hinton medium (broth and agar) and was incubated under the same conditions as S. mutans.” for “infections.”
Example 8 was repeated (except for the supplemented DDA assays), using S. aureus ATCC 29213 as the test organism. […] In the DDA assays, 200 μg is of each compound was loaded onto each disc: the culture medium was Mueller-Hinton agar at pH 7.0, and results were recorded after overnight incubation at 37° C. in air. […]

C. striatum NCTC 764 = assay: MIC assay; type: cell-based, Corynebacterium striatum; details: triplicate
Description: as §1, with “infections. S. mutans was cultured and maintained on Wilkins-Chalgren Anaerobe medium+1 g/L glucose (agar and broth); it was incubated in air at 37° C. for 48 hours, at pH 7 (±0.2) with 5% carbon dioxide.” for “infections.”
This is a standard international method for quantitatively assessing the antimicrobial activity of a compound in a liquid medium. […]
The wells were inoculated with a liquid suspension of freshly grown micro-organism and incubated under the conditions described above. […] The MIC value was recorded as the lowest concentration of test compound required to inhibit microbial growth, ie the lowest concentration for which the liquid in the well remained clear. […]

Row | SMILES | MBC (S. mutans ATCC 25175; Streptococcus mutans, ATCC25175, read-out: MBC) | MBC (S. aureus ATCC 29213; Staphylococcus aureus, ATCC29213, read-out: MBC) | MIC (C. striatum NCTC 764; Corynebacterium striatum, NCTC764, read-out: MIC) | MBC (S. mutans ATCC 25175) | MBC (S. aureus ATCC 29213) | MIC (C. striatum NCTC 764)
1 | CC(=O)c1c(O)c(C)c(O)c2c1OC1=CC(=O)C(C(C)=O)C(=O)C12C (stereo not drawn) [Usnic acid, 2,6-diacetyl-7,9-dihydroxy-8,9b-dimethyl-1,3(2H,9bh)-dibenzofurandione] | 125 µg/mL (≈ 363 µM) | 250 µg/mL (≈ 726 µM) | 7.8 µg/mL (≈ 22.7 µM) | – | – | –
2 | CC(=O)c1c([O-])c(C)c([O-])c2c1OC1=CC(=O)C(C(C)=O)C(=O)C12C.[Cu+2] (stereo not drawn) [Copper usnate, copper (II) usnate] | – | – | – | 31.25 µg/mL | 62.5 µg/mL | 3.9 µg/mL
